Results reported in patent US11225505B2, “Antimicrobial polymyxin derivative compounds” (MONASH UNIVERSITY, priority 2015, dated 2022).
Values after ≈ are worked out from the molar mass of the structure shown. Where a SMILES comes first, the peptide text is derived from it. Bridges are numbered along the chain shown (N, C = ends). [ ]: non-standard residue; d: D form. The star is where a group is joined. X18 = O=C(c1cc(-c2ccccc2)[nH]n1)*; X44 = O=C(c1cc(-c2ccccc2)no1)*; X20 = O=C(c1ccc(C(F)(F)F)s1)*; X38 = O=C(c1cc2sccc2[nH]1)*; X62 = O=C(c1cc(Br)c(Br)s1)*; X50 = O=C(c1sc(Br)cc1Br)*; Dab = NCC[C@H](N)C(=O)O; X10 = O=C(c1cc(Br)cs1)*; X60 = O=C(c1cnc(Br)s1)*; Abu = CC[C@H](N)C(=O)O; Dap = NC[C@H](N)C(=O)O; X71 = O=C(c1sccc1Cl)*

Experiments:
Format in all cases: cell-based
[1] = test system: Acinetobacter baumannii FADDI-AB034; details: FADDI-AB034
Procedure, shortened: (§1)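 The read-out is the MIC, obtained by CLSI broth microdilution (M100-S24) in cation-adjusted Mueller-Hinton broth. The compounds were lipopeptide TFA salts, and polymyxin B sulphate served as control.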

[2] = test system: Klebsiella pneumoniae FADDI-KP032; details: FADDI-KP032
Procedure, shortened: as §1

[3] = test system: Pseudomonas aeruginosa FADDI-PA022; details: FADDI-PA022
Procedure, shortened: as §1

[4] = test system: Enterobacter cloacae FADDI-EC006; details: FADDI-EC006
Procedure, shortened: as §1

[5] = test system: Klebsiella pneumoniae Kp BM1; details: Kp BM1
Procedure, shortened: (§2)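 Lipopeptide TFA salts were serially diluted in cation-adjusted Mueller-Hinton broth, inoculated with polymyxin-susceptible Gram-negative bacteria and scored for MIC according to CLSI guidance (M100-S24). Polymyxin B sulphate was included as comparator.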

[6] = test system: Enterobacter cloacae FADDI-EC003; details: FADDI-EC003
Procedure, shortened: as §1

[7] = test system: Pseudomonas aeruginosa ATCC 27853; details: ATCC 27853
Procedure, shortened: as §1

[8] = test system: Enterobacter cloacae FADDI-EC001; details: FADDI-EC001
Procedure, shortened: as §2

[9] = test system: Pseudomonas aeruginosa FADDI-PA01; details: FADDI-
Procedure, shortened: as §1

[10] = test system: Acinetobacter baumannii ATCC 17978; details: ATCC 17978
Procedure, shortened: as §1

[11] = test system: Klebsiella pneumoniae FADDI-KP022; details: FADDI-KP022
Procedure, shortened: as §1

[12] = test system: Pseudomonas aeruginosa FADDI-PA038; details: FADDI-PA038
Procedure, shortened: as §1

[13] = test system: Acinetobacter baumannii FADDI-AB030; test: microbe, parasite or virus in culture; details: FADDI-AB030
Procedure, shortened: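 Broth microdilution MIC in cation-adjusted Mueller-Hinton broth per CLSI M100-S24; lipopeptides tested as TFA salts. FADDI-AB030 is a multidrug-resistant clinical isolate. Polymyxin B sulphate served as control.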

Row | Structure (SMILES) | Minimum inhibitory concentration [1] [mg/L] | Minimum inhibitory concentration [2] [mg/L] | Minimum inhibitory concentration [3] [mg/L] | Minimum inhibitory concentration [4] [mg/L] | Minimum inhibitory concentration [5] [mg/L] | Minimum inhibitory concentration [6] [mg/L] | Minimum inhibitory concentration [7] [mg/L] | Minimum inhibitory concentration [8] [mg/L] | Minimum inhibitory concentration [9] [mg/L] | Minimum inhibitory concentration [10] [mg/L] | Minimum inhibitory concentration [11] [mg/L] | Minimum inhibitory concentration [12] [mg/L] | Minimum inhibitory concentration [13] [mg/L]
1 | CC[C@@H]1NC(=O)[C@@H](CC(C)C)NC(=O)[C@H](CCN)NC(=O)[C@@H](NC(=O)[C@H](CN)NC(=O)[C@@H](NC(=O)[C@H](CCN)NC(=O)c2cc(Br)c(Br)s2)[C@@H](C)O)CCNC(=O)[C@H]([C@@H](C)O)NC(=O)[C@H](CCN)NC(=O)[C@H](CCN)NC1=O [Compound 83] (X62-[Dab]T[Dap][Dab][Dab][dL][Abu][Dab][Dab]T; lactam 4-C) | <0.125 | 0.25 (≈ 0.199 µM) | 0.25 (≈ 0.199 µM) | <0.125 | <0.125 | 0.25 (≈ 0.199 µM) | 0.25 (≈ 0.199 µM) | 0.5 (≈ 0.398 µM) | 0.25 (≈ 0.199 µM) | 0.25 (≈ 0.199 µM) | <0.125 | 0.5 (≈ 0.398 µM) | <0.125
2 | CC[C@@H]1NC(=O)[C@@H](CC(C)C)NC(=O)[C@H](CCN)NC(=O)[C@@H](NC(=O)[C@H](CN)NC(=O)[C@@H](NC(=O)[C@H](CCN)NC(=O)c2cc(-c3ccccc3)[nH]n2)[C@@H](C)O)CCNC(=O)[C@H]([C@@H](C)O)NC(=O)[C@H](CCN)NC(=O)[C@H](CCN)NC1=O [Compound 84] (X18-[Dab]T[Dap][Dab][Dab][dL][Abu][Dab][Dab]T; lactam 4-C) | 0.5 (≈ 0.432 µM) | 0.25 (≈ 0.216 µM) | 0.25 (≈ 0.216 µM) | <0.125 | <0.125 | <0.125 | 0.25 (≈ 0.216 µM) | 0.25 (≈ 0.216 µM) | 0.25 (≈ 0.216 µM) | 0.5 (≈ 0.432 µM) | <0.125 | 0.5 (≈ 0.432 µM) | 0.5 (≈ 0.432 µM)
3 | CC[C@@H]1NC(=O)[C@@H](CC(C)C)NC(=O)[C@H](CCN)NC(=O)[C@@H](NC(=O)[C@H](CN)NC(=O)[C@@H](NC(=O)[C@H](CCN)NC(=O)c2sc(Br)cc2Br)[C@@H](C)O)CCNC(=O)[C@H]([C@@H](C)O)NC(=O)[C@H](CCN)NC(=O)[C@H](CCN)NC1=O [Compound 85] (X50-[Dab]T[Dap][Dab][Dab][dL][Abu][Dab][Dab]T; lactam 4-C) | 0.25 (≈ 0.199 µM) | <0.125 | 0.25 (≈ 0.199 µM) | <0.125 | 0.25 (≈ 0.199 µM) | 0.25 (≈ 0.199 µM) | 0.25 (≈ 0.199 µM) | 0.25 (≈ 0.199 µM) | 0.25 (≈ 0.199 µM) | <0.125 | <0.125 | 0.5 (≈ 0.398 µM) | <0.125
4 | CC[C@@H]1NC(=O)[C@@H](CC(C)C)NC(=O)[C@H](CCN)NC(=O)[C@@H](NC(=O)[C@H](CN)NC(=O)[C@@H](NC(=O)[C@H](CCN)NC(=O)c2ccc(C(F)(F)F)s2)[C@@H](C)O)CCNC(=O)[C@H]([C@@H](C)O)NC(=O)[C@H](CCN)NC(=O)[C@H](CCN)NC1=O [Compound 86] (X20-[Dab]T[Dap][Dab][Dab][dL][Abu][Dab][Dab]T; lactam 4-C) | <0.125 | <0.125 | 0.5 (≈ 0.429 µM) | 0.25 (≈ 0.215 µM) | 0.25 (≈ 0.215 µM) | 0.25 (≈ 0.215 µM) | 0.5 (≈ 0.429 µM) | <0.125 | 0.5 (≈ 0.429 µM) | <0.125 | <0.125 | 1 (≈ 0.858 µM) | 0.25 (≈ 0.215 µM)
5 | CC[C@@H]1NC(=O)[C@@H](CC(C)C)NC(=O)[C@H](CCN)NC(=O)[C@@H](NC(=O)[C@H](CN)NC(=O)[C@@H](NC(=O)[C@H](CCN)NC(=O)c2cc(-c3ccccc3)no2)[C@@H](C)O)CCNC(=O)[C@H]([C@@H](C)O)NC(=O)[C@H](CCN)NC(=O)[C@H](CCN)NC1=O [Compound 87] (X44-[Dab]T[Dap][Dab][Dab][dL][Abu][Dab][Dab]T; lactam 4-C) | 0.5 (≈ 0.432 µM) | 0.25 (≈ 0.216 µM) | 0.5 (≈ 0.432 µM) | 0.25 (≈ 0.216 µM) | 0.5 (≈ 0.432 µM) | <0.125 | 1 (≈ 0.863 µM) | <0.125 | 0.5 (≈ 0.432 µM) | 0.5 (≈ 0.432 µM) | <0.125 | 1 (≈ 0.863 µM) | 0.5 (≈ 0.432 µM)
6 | CC[C@@H]1NC(=O)[C@@H](CC(C)C)NC(=O)[C@H](CCN)NC(=O)[C@@H](NC(=O)[C@H](CN)NC(=O)[C@@H](NC(=O)[C@H](CCN)NC(=O)c2cc(Br)cs2)[C@@H](C)O)CCNC(=O)[C@H]([C@@H](C)O)NC(=O)[C@H](CCN)NC(=O)[C@H](CCN)NC1=O [Compound 88] (X10-[Dab]T[Dap][Dab][Dab][dL][Abu][Dab][Dab]T; lactam 4-C) | 0.5 (≈ 0.425 µM) | 0.5 (≈ 0.425 µM) | 0.5 (≈ 0.425 µM) | 0.5 (≈ 0.425 µM) | 0.25 (≈ 0.213 µM) | 0.5 (≈ 0.425 µM) | 0.5 (≈ 0.425 µM) | <0.125 | 0.5 (≈ 0.425 µM) | 0.5 (≈ 0.425 µM) | <0.125 | 0.5 (≈ 0.425 µM) | 0.5 (≈ 0.425 µM)
7 | CC[C@@H]1NC(=O)[C@@H](CC(C)C)NC(=O)[C@H](CCN)NC(=O)[C@@H](NC(=O)[C@H](CN)NC(=O)[C@@H](NC(=O)[C@H](CCN)NC(=O)c2sccc2Cl)[C@@H](C)O)CCNC(=O)[C@H]([C@@H](C)O)NC(=O)[C@H](CCN)NC(=O)[C@H](CCN)NC1=O [Compound 89] (X71-[Dab]T[Dap][Dab][Dab][dL][Abu][Dab][Dab]T; lactam 4-C) | 4 (≈ 3.53 µM) | 0.25 (≈ 0.221 µM) | 0.25 (≈ 0.221 µM) | <0.125 | <0.125 | <0.125 | 0.25 (≈ 0.221 µM) | <0.125 | 0.25 (≈ 0.221 µM) | 4 (≈ 3.53 µM) | <0.125 | 1 (≈ 0.884 µM) | 2 (≈ 1.77 µM)
8 | CC[C@@H]1NC(=O)[C@@H](CC(C)C)NC(=O)[C@H](CCN)NC(=O)[C@@H](NC(=O)[C@H](CN)NC(=O)[C@@H](NC(=O)[C@H](CCN)NC(=O)c2cc3sccc3[nH]2)[C@@H](C)O)CCNC(=O)[C@H]([C@@H](C)O)NC(=O)[C@H](CCN)NC(=O)[C@H](CCN)NC1=O [Compound 90] (X38-[Dab]T[Dap][Dab][Dab][dL][Abu][Dab][Dab]T; lactam 4-C) | 1 (≈ 0.88 µM) | 0.25 (≈ 0.22 µM) | 0.5 (≈ 0.44 µM) | 0.5 (≈ 0.44 µM) | 0.25 (≈ 0.22 µM) | <0.125 | 0.5 (≈ 0.44 µM) | <0.125 | 0.25 (≈ 0.22 µM) | 2 (≈ 1.76 µM) | <0.125 | 0.5 (≈ 0.44 µM) | 0.5 (≈ 0.44 µM)
9 | CC[C@@H]1NC(=O)[C@@H](CC(C)C)NC(=O)[C@H](CCN)NC(=O)[C@@H](NC(=O)[C@H](CN)NC(=O)[C@@H](NC(=O)[C@H](CCN)NC(=O)c2cnc(Br)s2)[C@@H](C)O)CCNC(=O)[C@H]([C@@H](C)O)NC(=O)[C@H](CCN)NC(=O)[C@H](CCN)NC1=O [Compound 91] (X60-[Dab]T[Dap][Dab][Dab][dL][Abu][Dab][Dab]T; lactam 4-C) | 2 (≈ 1.7 µM) | 0.5 (≈ 0.425 µM) | 0.5 (≈ 0.425 µM) | 0.5 (≈ 0.425 µM) | 0.5 (≈ 0.425 µM) | 1 (≈ 0.849 µM) | 0.5 (≈ 0.425 µM) | 0.5 (≈ 0.425 µM) | 0.5 (≈ 0.425 µM) | 2 (≈ 1.7 µM) | <0.125 | 1 (≈ 0.849 µM) | 1 (≈ 0.849 µM)
